Results as given in article PMC10115881, “Disrupting the α-synuclein-ESCRT interaction with a peptide inhibitor mitigates neurodegeneration in preclinical models of Parkinson’s disease” (Nature Communications, 2023).

Test system: A53T a-syn or EV rats
Experiment: AAV-A53T a-syn rat model, low titer
Type: in vivo
From the text: Third, we used a preclinical rat model of PD in which SN degeneration is induced by AAV vector-mediated expression of human mutant A53T a-syn[18],[45]–[48] (Fig. 5A). […] (Fig. 5B, C). […] Furthermore, overexpression of A53T a-syn was associated with a reduction in LAMP1 positive puncta in the SN which was restored with PDpep1.3 (Figs. 5E, S5E). […] Forelimb asymmetry in the cylinder test is a behavioral impairment associated with SN degeneration which models bradykinesia, the cardinal motor abnormality in PD[49].
Adult female Sprague-Dawley rats (250–280 g; Envigo) were pair-housed in cages with wood bedding and had access to food and water ad libitum. The animal colony was maintained in a regular 12 h light/dark cycle. All procedures were approved by the University Health Network Animal Care Committee in accordance with guidelines and regulations set by the Canadian Council on Animal Care (AUP #3818).
Animals were secured in a stereotactic frame under isoflurane/oxygen anesthesia and ketoprofen (5 mg/kg) analgesia. The surgical site was shaved and sterilized with iodine/betadine prior to making a 2 cm incision along the midline. The scalp was exposed and a unilateral injection targeting the SN was performed at coordinates AP −5.2 mm, ML −2 mm and DV −7.5 mm with respect to the bregma as a point of reference. […]
Immunofluorescence staining for a-syn, pS129 a-syn, TH, and LAMP1 was performed by washing free-floating sections with PBS-T (0.1% Tween-20 or 0.2% Triton-X-100) three times for 10 min each at room temperature. […] Sections were then mounted onto glass slides and allowed to dry and then Dako fluorescence mounting medium (Agilent) was applied, followed by coverslips.
Confocal images of immunofluorescent staining of midbrain sections were processed using HALO software (Indica Labs), which is a well validated tool for automatic quantification of neurons in brain tissue sections[70]–[72]. […] Levels of total a-syn were assessed in this ROI by measuring the area and intensity of anti-a-syn staining. […]

DEEIERQLKALG [PDpep1.3]
Effect on LAMP1 positive puncta in SN: restored
Effect on total a-syn positive area in SN: significant reduction in total a-syn positive area in the SN
a-syn mean fluorescence intensity in TH+ and GFP+ SN cells (n = 5–7 rats/group): 0.335 ± 0.025 RFU
